For 29 molecules, EC50 results are on record in patent US20170121344A1 (Siga Technologies, Inc., priority 2009, published 2017).

By EC50 is commonly meant the concentration giving half of the maximal effect.

The assay relates to Dengue-2 (Strain New Guinea C). Kind of assay: Viral yield assay against Dengue-2 in Vero cells. In kind it is cell-based, Dengue virus. As to conditions: Dengue virus, read-out: Activity (EC50 class) against Dengue-2 Virus in Vero cells. The procedure, abridged:
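Vero cells were infected with dengue-2 at MOI 0.1, treated with compound (DMSO control), and kept at 37° C. They were harvested 48 hours post infection and yield was titered on Vero cells. EC50 came from the yield curve, and the other serotypes were run in a similar way.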

Where [1] appears, read: Vero cells, MOI 0.1, harvested 48 hours post infection.

Like-named read-outs stand apart in the source and are kept apart here. Where only a bound is given, the exact number is not on record here.

For `COc1cc(-c2c(C#N)c(N)nc3sc(C(N)=O)c(N)c23)cc(OC)c1OC` [Compound 155, 3,6-Diamino-5-cyano-4-(3,4,5-trimethoxy-phenyl)-thieno[2,3-b]pyridine-2-carboxylic acid amide], the concentration giving a half-maximal response (EC50) under setting [1] is over 25 µM. For `COCc1cc(C)nc2sc3c(=O)n(-c4ccc(C(C)=O)cc4)nnc3c12` [Compound 156, 3-(4-Acetyl-phenyl)-9-methoxymethyl-7-methyl-3H-pyrido[3′,2′:4,5]thieno[3,2-d][1,2,3]triazin-4-one], the EC50 under setting [1] was over 25 µM. With `Cc1nc2sc(C(=O)Nc3ccc(Br)cc3)c(N)c2c(C)c1C` [Compound 157, 3-Amino-4,5,6-trimethyl-thieno[2,3-b]pyridine-2-carboxylic acid (4-bromo-phenyl)-amide], the half-maximal effective concentration (EC50) (Vero, 48 h) was over 25 µM. With `NC(=O)c1sc2nccc(Nc3ccccc3)c2c1N` [Compound 158, 3-Amino-4-phenylamino-thieno[2,3-b]pyridine-2-carboxylic acid amide], under setting [1], the concentration for a half-maximal effect (EC50) was over 25 µM. As to `CN(C)c1ccnc2sc3c(=O)n(-c4ccccc4)cnc3c12` [Compound 159, 9-Dimethylamino-3-phenyl-3H-pyrido[3′,2′:4,5]thieno[3,2-d]pyrimidin-4-one], where the note is “Vero, 48 h”, the EC50 was over 25 µM. Turning to `CCc1c(C)nc2sc(C(N)=O)c(N)c2c1C` [Compound 160, 3-Amino-5-ethyl-4,6-dimethyl-thieno[2,3-b]pyridine-2-carboxylic acid amide], the half-maximal effective concentration (EC50) under setting [1] is over 25 µM. Turning to `NC(=O)c1sc2nc(-c3ccccc3)ccc2c1N` [Compound 161, 3-Amino-6-phenyl-thieno[2,3-b]pyridine-2-carboxylic acid amide], the EC50 under setting [1] was over 25 µM. On to `COc1ccc(NC(=O)c2sc3nc(C)cc(C(F)(F)F)c3c2N)cc1` [Compound 162, 3-Amino-6-methyl-4-trifluoromethyl-thieno[2,3-b]pyridine-2-carboxylic acid (4-methoxy-phenyl)-amide], for which, under setting [1], the EC50 was over 25 µM. As for `COc1ccc(NC(=O)c2sc3nc(C)cc(C)c3c2N)cc1` [Compound 163, 3-Amino-4,6-dimethyl-thieno[2,3-b]pyridine-2-carboxylic acid (4-methoxy-phenyl)-amide], the EC50 (Vero, 48 h) is over 25 µM.

For `NC(=O)c1sc2nc(-c3cccnc3)ccc2c1N` [Compound 164, 3-Amino-6-pyridin-3-yl-thieno[2,3-b]pyridine-2-carboxylic acid amide], under setting [1], the EC50 is over 25 µM. `Cc1ccc(NC(=O)c2sc3nc(C)cc(C(F)(F)F)c3c2N)cc1` [Compound 165, 3-Amino-6-methyl-4-trifluoromethyl-thieno[2,3-b]pyridine-2-carboxylic acid p-tolylamide]: under setting [1], the concentration giving a half-maximal response (EC50) is over 25 µM. In the case of `CN(C)c1ccnc2sc(C(N)=O)c(N)c12` [Compound 166, 3-Amino-4-dimethylamino-thieno[2,3-b]pyridine-2-carboxylic acid amide], the 50% effective concentration (EC50) (Vero, 48 h) was over 25 µM.

As to `CCN(CC)C(=O)c1sc2nc(C)cc(C)c2c1N` [Compound 167, 3-Amino-4,6-dimethyl-thieno[2,3-b]pyridine-2-carboxylic acid diethylamide], the 50% effective concentration (EC50) under setting [1] is over 25 µM. In the case of `CC1(C)Cc2c(c(N3CCOCC3)nc3sc(C(N)=O)c(N)c23)CO1` [Compound 169, 1-Amino-8,8-dimethyl-5-morpholin-4-yl-8,9-dihydro-6H-7-oxa-3-thia-4-aza-cyclopenta[a]naphthalene-2-carboxylic acid amide], the 50% effective concentration (EC50) (Vero, 48 h) was over 25 µM.

With `COc1ccc(-c2c(C#N)c(N)nc3sc(C(N)=O)c(N)c23)cc1OC` [Compound 170, 3,6-Diamino-5-cyano-4-(3,4-dimethoxy-phenyl)-thieno[2,3-b]pyridine-2-carboxylic acid amide], the EC50 (Vero, 48 h) is over 25 µM. The same measure, in the same setting: then `NC(=O)c1sc2nc(N3CCOCC3)c3c(c2c1N)CCCC3` [Compound 171, 1-Amino-5-morpholin-4-yl-6,7,8,9-tetrahydro-thieno[2,3-c]isoquinoline-2-carboxylic acid amide], with over 25 µM. `Cc1cc(C)c2c(N)c(C(=O)Nc3ccc(Br)cc3)sc2n1` [Compound 172, 3-Amino-4,6-dimethyl-thieno[2,3-b]pyridine-2-carboxylic acid (4-bromo-phenyl)-amide]: where the note is “Vero, 48 h”, the EC50 was over 25 µM. Regarding `Nc1c(C(=O)Nc2ccccc2)sc2nc3c(cc12)CCC3` [Compound 173, 3-Amino-6,7-dihydro-5H-cyclopenta[b]thieno[3,2-e]pyridine-2-carboxylic acid phenylamide], the EC50 under setting [1] was over 25 µM. On the same count and under the same terms, then `CC1(C)Cc2nc3sc4c(=O)n(Cc5ccccc5)cnc4c3cc2CO1` [Compound 174, 2-Benzyl-8,8-dimethyl-8,9-dihydro-2H,6H-7-oxa-11-thia-2,4,10-triaza-benzo[b]fluoren-1-one], with over 25 µM; and `Cc1ccc(NC(=O)c2sc3nc4c(cc3c2N)CCCCC4)cc1` [Compound 175, 3-Amino-6,7,8,9-tetrahydro-5H-1-thia-10-aza-cyclohepta[f]indene-2-carboxylic acid p-tolylamide], with over 25 µM. For the molecule `COCc1cc(C)nc2sc(C(=O)NC3CCCCC3)c(N)c12` [Compound 176, 3-Amino-4-methoxymethyl-6-methyl-thieno[2,3-b]pyridine-2-carboxylic acid cyclohexylamide], the half-maximal effective concentration (EC50) (Vero, 48 h) was over 25 µM. `Nc1c(C(=O)Nc2ccc(F)cc2)sc2nc3c(cc12)CCC3` [Compound 177, 3-Amino-6,7-dihydro-5H-cyclopenta[b]thieno[3,2-e]pyridine-2-carboxylic acid (4-fluoro-phenyl)-amide]: the concentration giving a half-maximal response (EC50) under setting [1] is over 25 µM.

In the case of `Cc1cc(C)c2c(N)c(C(=O)Nc3ccccc3F)sc2n1` [Compound 178, 3-Amino-4,6-dimethyl-thieno[2,3-b]pyridine-2-carboxylic acid (2-fluoro-phenyl)-amide], the EC50 (Vero, 48 h) is over 25 µM.

For `Cc1cccc(NC(=O)c2sc3nc4c(cc3c2N)CCC4)c1C` [Compound 179, 3-Amino-6,7-dihydro-5H-cyclopenta[b]thieno[3,2-e]pyridine-2-carboxylic acid (2,3-dimethyl-phenyl)-amide], the EC50 (Vero, 48 h) was over 25 µM. The same measure, in the same setting: the result for `Nc1c(C(=O)Nc2ccccc2F)sc2nc3c(cc12)CCC3` [Compound 180, 3-Amino-6,7-dihydro-5H-cyclopenta[b]thieno[3,2-e]pyridine-2-carboxylic acid (2-fluoro-phenyl)-amide] reads over 25 µM; that for `Cc1cc(C)c2c(N)c(C(=O)Nc3cccc(C)c3C)sc2n1` [Compound 181, 3-Amino-4,6-dimethyl-thieno[2,3-b]pyridine-2-carboxylic acid (2,3-dimethyl-phenyl)-amide], over 25 µM; that for `O=c1[nH]cnc2c1sc1nc(N3CCOCC3)c3c(c12)CCCC3` [Compound 182, 5-Morpholin-4-yl-1,2,3,4-tetrahydro-9H-7-thia-6,9,11-triaza-benzo[c]fluoren-8-one], over 25 µM.

For `Cc1cc(C)c2c(N)c(C(=O)Nc3ccc(S(N)(=O)=O)cc3)sc2n1` [Compound 183, 3-Amino-4,6-dimethyl-thieno[2,3-b]pyridine-2-carboxylic acid (4-sulfamoyl-phenyl)-amide], the 50% effective concentration (EC50) under setting [1] is over 25 µM. As to `COc1ccc(NC(=O)c2sc3nc4c(cc3c2N)CCC4)cc1` [Compound 184, 3-Amino-6,7-dihydro-5H-cyclopenta[b]thieno[3,2-e]pyridine-2-carboxylic acid (4-methoxy-phenyl)-amide], the concentration giving a half-maximal response (EC50) (Vero, 48 h) was over 25 µM.
